Assay results taken from patent US20110015162A1, “15,16-Methylene-17-hydroxy-19-nor-21-carboxylic acid-steroid Y-lactone derivative, use thereof and medicinal products containing the derivative” (Bayer Schering Pharma Aktiengesellschaft, priority 2007, published 2011).

Key:
[1] = target: T1, progesterone receptor (Homo sapiens, UniProt P06401); assay: Progesterone receptor binding test; conditions: CF 1 = affinity of progesterone; CF >1 lower affinity, <1 higher affinity
T1 construct: made in house; host or cells: Hi5 insect cells (cytosol)
T1 sequence (P06401 1-933): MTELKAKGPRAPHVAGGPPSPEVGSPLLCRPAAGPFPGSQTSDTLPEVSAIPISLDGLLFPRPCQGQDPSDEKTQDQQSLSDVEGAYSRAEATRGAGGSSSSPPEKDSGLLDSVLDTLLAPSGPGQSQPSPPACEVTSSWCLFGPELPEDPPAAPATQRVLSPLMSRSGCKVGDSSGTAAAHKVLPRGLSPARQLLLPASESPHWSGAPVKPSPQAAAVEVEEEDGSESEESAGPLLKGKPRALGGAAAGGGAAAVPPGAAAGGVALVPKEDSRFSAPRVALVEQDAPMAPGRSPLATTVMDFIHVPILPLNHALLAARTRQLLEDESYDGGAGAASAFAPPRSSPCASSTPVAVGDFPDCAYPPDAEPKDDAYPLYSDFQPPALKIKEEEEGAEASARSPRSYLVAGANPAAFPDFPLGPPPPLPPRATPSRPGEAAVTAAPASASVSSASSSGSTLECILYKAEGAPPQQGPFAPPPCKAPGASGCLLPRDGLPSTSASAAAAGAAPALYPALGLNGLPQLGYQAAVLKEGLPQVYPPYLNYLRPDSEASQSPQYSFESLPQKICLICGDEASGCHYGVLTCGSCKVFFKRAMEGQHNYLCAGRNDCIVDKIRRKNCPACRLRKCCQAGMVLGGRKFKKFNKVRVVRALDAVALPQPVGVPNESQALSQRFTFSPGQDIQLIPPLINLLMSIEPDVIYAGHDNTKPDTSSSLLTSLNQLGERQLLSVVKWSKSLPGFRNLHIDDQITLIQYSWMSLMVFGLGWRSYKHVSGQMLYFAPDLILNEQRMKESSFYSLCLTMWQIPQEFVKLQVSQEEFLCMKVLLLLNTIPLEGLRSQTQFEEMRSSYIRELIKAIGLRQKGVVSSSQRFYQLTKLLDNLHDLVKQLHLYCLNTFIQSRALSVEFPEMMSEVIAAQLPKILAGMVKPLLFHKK
Protocol: 1. Progesterone Receptor Binding Test:
(§1) Using cytosol from progesterone receptor-expressing insect cells (Hi5), competitive binding to the progesterone receptor was determined from the ability to displace ^3H-progesterone as reference substance from the receptor.

[2] = target: T2, fusion protein from the PR-ligand-binding domain and a Gal4-transactivation domain (Homo sapiens, UniProt P06401); assay: Progestational action by transactivation test (CHO K1 reporter cells); type: cell-based; conditions: CHO-K1, 16 h, read-out: Progesterone receptor Agonism efficacy
T2 construct: expressed in transfected cells; host or cells: CHO K1 cells, stably transfected
T2 sequence (P04386 1-147 partner limits assumed, one chain of several): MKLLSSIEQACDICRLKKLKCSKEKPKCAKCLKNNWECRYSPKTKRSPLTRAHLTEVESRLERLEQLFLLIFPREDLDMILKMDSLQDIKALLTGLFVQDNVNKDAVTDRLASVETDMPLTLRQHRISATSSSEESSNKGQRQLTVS
Protocol: 4. Determination of Progestational Action by Means of Transactivation Tests:
The culture medium used for culture of the cells used for the assay was DMEM (Dulbecco's Modified Eagle Medium: […] glucose; PAA, #E15-009) with 10% FCS (Biochrom, S0115, batch #615B), 4 mM L-glutamine, 1% penicillin/streptomycin, 1 mg/ml G418 and 0.5 μg/ml puromycin.
Reporter cell lines (CHO K1 cells stably transfected with a fusion protein from the PR-ligand-binding domain and a Gal4-transactivation domain and a reporter construct, which contained luciferase under the control of a Gal4-responsive promoter) were seeded at a density of 4×10^4 cells per well in white, opaque tissue culture plates each with 96 wells (PerkinElmer, #P12-106-017) and kept in culture medium with 3% DCC-FCS (serum treated with activated charcoal to remove interfering components contained in the serum). The test compounds were added eight hours later, and the cells were incubated with the compounds for 16 hours. The tests were carried out in triplicate. At the end of incubation the medium containing the effector was removed and replaced with lysis buffer. After luciferase assay substrate (Promega, #E1501) had been added, the 96-well plates were then put in a microplate luminometer (Pherastar, BMG Labtech), and the luminescence was measured. The IC50 values were evaluated using software for calculating dose-effect relations.

[3] = target: T3, mineralocorticoid receptor (Homo sapiens, UniProt P08235); assay: Mineralocorticoid receptor binding test; design: made in house; host or cells: Hi5 insect cells (cytosol); conditions: reference substance 3H-aldosterone, cytosol from MR-expressing insect cells (Hi5)
T3 sequence (P08235 1-984): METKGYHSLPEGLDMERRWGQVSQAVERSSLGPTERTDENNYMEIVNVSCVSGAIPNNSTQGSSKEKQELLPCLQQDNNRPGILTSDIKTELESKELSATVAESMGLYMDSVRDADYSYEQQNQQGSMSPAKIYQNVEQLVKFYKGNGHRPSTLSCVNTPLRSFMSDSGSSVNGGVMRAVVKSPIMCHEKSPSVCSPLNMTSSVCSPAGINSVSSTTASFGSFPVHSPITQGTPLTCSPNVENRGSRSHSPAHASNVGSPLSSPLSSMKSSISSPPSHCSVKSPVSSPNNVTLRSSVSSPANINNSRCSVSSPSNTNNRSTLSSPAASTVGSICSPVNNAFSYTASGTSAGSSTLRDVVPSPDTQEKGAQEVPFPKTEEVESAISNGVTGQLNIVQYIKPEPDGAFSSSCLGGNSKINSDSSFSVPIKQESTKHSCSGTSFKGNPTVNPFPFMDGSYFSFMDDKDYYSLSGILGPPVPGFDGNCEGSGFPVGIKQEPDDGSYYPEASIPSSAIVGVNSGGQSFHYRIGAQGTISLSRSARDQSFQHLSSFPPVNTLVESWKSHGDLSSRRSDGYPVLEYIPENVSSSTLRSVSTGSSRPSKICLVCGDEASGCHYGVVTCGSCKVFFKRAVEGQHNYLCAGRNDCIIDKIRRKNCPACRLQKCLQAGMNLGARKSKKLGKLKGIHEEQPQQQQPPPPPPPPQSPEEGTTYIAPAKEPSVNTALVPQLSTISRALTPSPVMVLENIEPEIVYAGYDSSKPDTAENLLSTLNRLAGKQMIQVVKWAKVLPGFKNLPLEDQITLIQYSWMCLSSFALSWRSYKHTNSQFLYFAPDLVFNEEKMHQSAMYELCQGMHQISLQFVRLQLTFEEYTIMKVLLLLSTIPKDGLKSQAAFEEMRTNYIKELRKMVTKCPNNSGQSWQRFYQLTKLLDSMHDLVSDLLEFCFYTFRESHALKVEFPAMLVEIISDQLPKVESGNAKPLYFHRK
Protocol: as §1
2. Mineralocorticoid Receptor Binding Test:
The test was carried out as in 1, with the following modifications: cytosol from mineralocorticoid receptor-expressing insect cells (Hi5) was used, and the reference substance was ^3H-aldosterone.

[4] = target: T3, mineralocorticoid receptor; assay: Antimineralocorticoid action by transactivation test (MDCK reporter cells); type: cell-based; design: expressed in transfected cells; host or cells: MDCK cells;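 for Emax: percent inhibition of the aldosterone-stimulated reporter signal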
Protocol: The test compounds were added eight hours later, and the cells were incubated with the compounds for 16 hours. The tests were carried out in triplicate. At the end of incubation the medium containing the effector was removed and replaced with lysis buffer. After luciferase assay substrate (Promega, #E1501) had been added, the 96-well plates were then put in a microplate luminometer (Pherastar, BMG Labtech), and the luminescence was measured. The IC50 values were evaluated using software for calculating dose-effect relations.
5. Determination of Antimineralocorticoid Action by Means of Transactivation Tests:
The antimineralocorticoid activity of the test substances was determined as for the transactivation tests described above.
The following modifications were undertaken: In this case reporter cell lines were used (MDCK cells) that express the human mineralocorticoid receptor, and transiently contain a reporter construct that contains luciferase under the control of a steroid hormone-responsive promoter.

Question: With `C[C@]12CCC(=O)C=C1[C@@H]1C[C@@H]1[C@H]1[C@@H]3[C@@H]4C[C@@H]4[C@@]4(CCC(=O)O4)[C@@]3(C)CC[C@@H]12` [A, 6β, 7β;15β,16β-dimethylene-3-oxo-17-pregn-4-ene-21,17β-carbolactone, reference compound] as the compound, how does the “Progesterone receptor (PR) Competition factor” value [1] read?
Answer: 2.7

Question: And the Emax [2]?
Answer: 72.2%

Question: And the “Mineralocorticoid receptor (MR) Competition factor” value [3]?
Answer: 0.5

Question: And the IC50 ([4]; MDCK cells, with 1 nM aldosterone, read-out: Mineralocorticoid receptor Antagonism IC50)?
Answer: 3.3 nM

Question: And the Emax ([4]; MDCK, read-out: Mineralocorticoid receptor Antagonism efficacy)?
Answer: 64.1%
